Measured values from patent US4808609A, “Amino-(hydroxy)alkoxy-4-phenylpropyl indoles having antiarrythmic activity” (Roussel Uclaf, priority 1985, dated 1989).

Legend:
mice = experiment: Study of the acute toxicity (oral, mice); assay type: in vivo
Experimental: The lethal doses LD0 were evaluated for the different compounds tested after oral administration to mice.

Caudal arteries of rats = experiment: Anti-calcic activity in vitro (inhibition of K+ depolarization contraction of caudal arteries of rats); assay type: cell-based; conditions: rat caudal artery spirals, 100 mM K+, Ca2+ 0.1 to 3.0 mM, 37° C.; read-out: IC 50 (inhibits by 50% the contraction due to the K+ ions)
Experimental: Caudal arteries of rats were cut into spirals and attached to tension indicators and were kept in tanks of 25 ml of Krebs buffer-sodium bicarbonate (NaCl: 120.8 mM, KCl: 5.9 mM, MgCl2 : 1.2 mM, NaH2 PO4 : 1.2 mM, NaHCO3 : 15.5 mM, glucose: 12.6 mM) at 37° C. gassed with a mixture of O2 : 95%--CO2 --5%. The preparations were depolarized by a buffer solution with a concentration of 100 mM of K^+ ions (NaCl: 26.7 mM, KCl: 100 mM, MgCl2 1.2 mM, NaH2 PO4 : 1.3 mM, NaHCO3 : 15.5 mM, glucose: 12.6 mM).
250 μl of solutions of calcium chloride were added so that an increasing range of concentrations of Ca^2+ ions going from 0.1 to 3.0 mM was obtained. The contractions of the arteries were recorded and in this way a control range was established. The operation was repeated with the range of Ca^2+ ions every 15 minutes, and the preparation was washed four times after each range. When a stable response was obtained, the operation was carried out with the ranges of Ca^2+ ions in the presence of different concentrations of the product under test until a stable response was obtained.
The contractions of the arteries depend on the entry of the Ca^2+ ions into the cells of the smooth muscles and they are caused by the depolarization of the smooth muscle by the K^+ ions by the action of the noradrenaline liberated at the presynaptic level. By repeating the operation with the arteries denervated by the action of 6-OH dopamine, the action due to the noradrenaline alone is suppressed.
The results are expressed in IC 50 (inhibiting concentration 50) which is the concentration of the product under test which inhibits by 50% the contraction due to the K^+ ions.

[1] = system: disturbances of the cardiac rhythm (aconitine); experiment: Anti-arrhythmic activity in the rat (aconitine-induced cardiac rhythm disturbances); assay type: in vivo
Experimental: Male rats weighing 300-350 g anesthetized intraperitoneally with 1.20 g/kg of urethane were tracheotomized and subjected to artificial respiration (40-50 breaths of 3 ml/minute). Needles were implanted subcutaneously to record the eletrocardiogram of the rats on the derivation signal DII. The products under test were administered intravenously or orally. Five minutes after the administration of the product intravenously or 1 hour after administration orally, the jugular vein of the rats was perfused with 10 μg/min. of an aconitine solution and the time was noted of the appearance of disturbances of the cardiac rhythm (10 μg of aconitine corresponding to the perfusion of a volume of 0.2 ml of solution. The results were expressed as a percentage of the extension of the time of appearance of the cardiac rhythm disturbances as compared to controls and as a function of the dose of the product under test.

[2] = IV, 0.5 mg/kg, aconitine five minutes after administration
[3] = oral, 10 mg/kg, aconitine 1 hour after administration
[4] = IV, 2.5 mg/kg, aconitine five minutes after administration

| Compound | LD0 (maximum dose which does not cause any mortality in 8 days) (mice) [mg/kg] | IC50 (Caudal arteries of rats) [nM] | % extension of time of appearance of cardiac rhythm disturbances [1, 2] [%] | also measured |
| --- | --- | --- | --- | --- |
| CC(C)(C)NCC(O)COc1ccccc1C(=O)CCc1cccc2[nH]ccc12 (stereo not shown) [Example 1, (E) butenedioate (1,2) of 1-[2-[3-(1,1-dimethylethylamino)-2-hydroxypropoxy]-phenyl]-3-(1H-indol-4-yl)-1-propanone] | 100 | 400 | 28 | % extension of time of appearance of cardiac rhythm disturbances ([1]; oral, 5 mg/kg, aconitine 1 hour after administration): 41%; % extension of time of appearance of cardiac rhythm disturbances [1, 3]: 39%; % extension of time of appearance of cardiac rhythm disturbances ([1]; oral, 25 mg/kg, aconitine 1 hour after administration): 142% |
| CC(C)(C)NCC(O)COc1ccccc1C(=O)CCc1cccc2c1CC(=O)N2 (stereo not shown) [Example 5, 1,3-dihydro-4-[3-[2-[3-(1,1-dimethylethylamino)-2-hydroxypropoxy]-phenyl]-3-oxo-propyl]-2H-indol-2-one] | > 400 | – | 66 | % extension of time of appearance of cardiac rhythm disturbances [1, 3]: 47% |
| CCCNCC(O)COc1ccccc1C(=O)CCc1cccc2[nH]ccc12 (stereo not shown) [Example 2, (E) butenedioate (1,2) 1-[2-[2-hydroxy-3-propylamino-propoxy]-phenyl]-3-(1H-indol-4-yl)-1-propanone] | 100 | 3800 | – | % extension of time of appearance of cardiac rhythm disturbances ([1]; IV, 1 mg/kg, aconitine five minutes after administration): 32% |
| CCCNCC(O)COc1ccccc1CCCc1cccc2[nH]ccc12 (stereo not shown) [Example 8, 1-[2-[3-(1H-indol-4-yl)-propyl]-phenoxy]-3-propylamino-2-propanol] | > 400 | 1400 | – | % extension of time of appearance of cardiac rhythm disturbances [1, 4]: 25.5% |
| CC(C)(C)NCC(O)COc1ccccc1CCCc1cccc2[nH]ccc12 (stereo not shown) [Example 7, 1-(1,1-dimethylethylamino)-3-[2-[3-(1H-indol-4-yl)-propyl]-phenoxy]-2-propanol] | > 400 | 640 | – | % extension of time of appearance of cardiac rhythm disturbances [1, 4]: 41% |
| CCCNCC(O)COc1ccccc1C(=O)CCc1cccc2c1CC(=O)N2 (stereo not shown) [Example 6, 1,3-dihydro-4-[3-oxo-3-[2-(2-hydroxy-3-propylamino-propoxy)-phenyl]-propyl]-2H-indol-2-one] | 100 | 3600 | – | % extension of time of appearance of cardiac rhythm disturbances ([1]; IV, 0.25 mg/kg, aconitine five minutes after administration): 31% |
| CCCNCC(O)COc1ccccc1CCCc1cccc2c1CC(=O)N2 (stereo not shown) [Example 9, 1,3-dihydro-4-[3-[2-[2-hydroxy-3-propylamino-propoxy]-phenyl]-propyl]-2H-indol-2-one] | – | – | 45 | – |
